Assay results from patent US4496566A, “Naphthyridine derivatives” (Dainippon Pharmaceutical Co., Ltd., priority 1980, dated 1985).
Values after ≈ are worked out from the molar mass of the structure shown.

Key:
[1] = test system: Pseudomonas aeruginosa No. 12; assay: In vivo therapeutic efficacy against systemic infections in mice; conditions: po, twice, about 5 minutes and 6 hours after intraperitoneal infection, male ddY mice, read-out: median effective dose (ED50)
Description: (§1) Compound 1 of this invention obtained by the procedure described in Example 1 and compounds A and B were each suspended in a 0.2% aqueous solution of sodium carboxymethylcellulose. Each of the solutions was orally administered to mice infected with each of the test organisms under the conditions described below, and the median effective doses (ED50; mg/kg) obtained are shown in Table II. Male mice (ddY) weighing about 20 g (4) Pseudomonas aeruginosa No. 12: Intraperitoneal infection with about 4×10^3 cells per mouse suspended in trypto-soy broth with 4% mucin. […] Exp. Path. Pharm., 162, 480 (1931)].

[2] = test system: Enterobacter cloacae P-2540; assay: MIC by agar dilution method; assay type: cell-based; conditions: P2540, read-out: minimum inhibitory concentration (MIC)
[3] = test system: Streptococcus pyogenes A65; assay: In vivo therapeutic efficacy against systemic infections in mice; conditions: po, twice, about 5 minutes and 6 hours after intraperitoneal infection, male ddY mice, read-out: median effective dose (ED50)
Description: as §1, with “(2) Streptococcus pyogenes […]” for “(4) Pseudomonas aeruginosa No. 12:”, “3×10^7” for “4×10^3”, “brain-heart infusion broth.” for “trypto-soy broth with 4% mucin.”

[4] = test system: Streptococcus pyogenes A65; assay: MIC by agar dilution method; assay type: cell-based; conditions: read-out: minimum inhibitory concentration (MIC)
[5] = test system: Salmonella enteritidis No. 1891; assay: MIC by agar dilution method; assay type: cell-based; conditions: Salmonella enterica, read-out: minimum inhibitory concentration (MIC)
Escherichia coli P-5101 [6] = assay: In vivo therapeutic efficacy against systemic infections in mice; conditions: P5101, 168 h, po, twice, about 5 minutes and 6 hours after intraperitoneal infection, male ddY mice, observed 7 days, read-out: median effective dose (ED50)
Description: as §1, with “(3) Escherichia coli P-5101:” for “(4) Pseudomonas aeruginosa No. 12:”, “9×10^6” for “4×10^3”

[7] = test system: Pseudomonas aeruginosa No. 12; assay: MIC by agar dilution method; assay type: cell-based; conditions: read-out: minimum inhibitory concentration (MIC)
[8] = test system: Salmonella typhimurium S-9; assay: MIC by agar dilution method; assay type: cell-based; conditions: Salmonella enterica, read-out: minimum inhibitory concentration (MIC)
Escherichia coli P-140a = assay: MIC by agar dilution method; assay type: cell-based; conditions: P140A, read-out: minimum inhibitory concentration (MIC)
[9] = test system: Pseudomonas aeruginosa Tsuchijima; assay: MIC by agar dilution method; assay type: cell-based; conditions: read-out: minimum inhibitory concentration (MIC)
[10] = test system: Corynebacterium pyogenes C-21; assay: MIC by agar dilution method; assay type: cell-based; conditions: Trueperella pyogenes, C21, read-out: minimum inhibitory concentration (MIC)
[11] = test system: Escherichia coli NIHJ JC-2; assay: MIC by agar dilution method; assay type: cell-based; conditions: NIHJJC2, read-out: minimum inhibitory concentration (MIC)
[12] = test system: Staphylococcus aureus No. 50774; assay: In vivo therapeutic efficacy against systemic infections in mice; conditions: NO.50774, 336 h, po, twice, about 5 minutes and 6 hours after intravenous infection, male ddY mice, observed 14 days, read-out: median effective dose (ED50)
Description: as §1, with “(1) Staphylococcus aureus” for “(4) Pseudomonas aeruginosa”, “50774: Intravenous” for “12: Intraperitoneal”, “5×10^8” for “4×10^3”, “saline.” for “trypto-soy broth with 4% mucin.”

Escherichia coli P-5101 [13] = assay: MIC by agar dilution method; assay type: cell-based; conditions: P5101, read-out: minimum inhibitory concentration (MIC)
[14] = test system: Streptococcus faecalis P-2473; assay: MIC by agar dilution method; assay type: cell-based; conditions: Enterococcus faecalis, P2473, read-out: minimum inhibitory concentration (MIC)
[15] = test system: Staphylococcus aureus No. 50774; assay: MIC by agar dilution method; assay type: cell-based; conditions: Gram-positive bacteria, read-out: minimum inhibitory concentration (MIC)
Proteus mirabilis P-2381 = assay: MIC by agar dilution method; assay type: cell-based; conditions: P2381, read-out: minimum inhibitory concentration (MIC)
Protocol: (§2) The minimum inhibitory concentrations (MIC: μg/ml) of the following compounds were measured by the agar dilution method according to the procedure described in Chemotherapy, Vol. 22, No. 16, page 1126 (1974).

[16] = test system: Shigella flexneri 4a P-330; assay: MIC by agar dilution method; assay type: cell-based; conditions: 4AP330, read-out: minimum inhibitory concentration (MIC)
Protocol: as §2

Proteus morganii Kono = assay: MIC by agar dilution method; assay type: cell-based; conditions: Morganella morganii, read-out: minimum inhibitory concentration (MIC)
Protocol: as §2

Shigella flexneri 2a = assay: MIC by agar dilution method; assay type: cell-based; conditions: read-out: minimum inhibitory concentration (MIC)
Protocol: as §2

[17] = test system: Serratia marcescens IFO 3736; assay: MIC by agar dilution method; assay type: cell-based; conditions: IFO3736, read-out: minimum inhibitory concentration (MIC)
Protocol: as §2

[18] = test system: Klebsiella pneumoniae No. 13; assay: MIC by agar dilution method; assay type: cell-based; conditions: read-out: minimum inhibitory concentration (MIC)
Protocol: as §2

[19] = test system: Staphylococcus aureus 209P JC-1; assay: MIC by agar dilution method; assay type: cell-based; conditions: Gram-positive bacteria, read-out: minimum inhibitory concentration (MIC)
Protocol: as §2

[20] = Acute oral toxicity in mice; conditions: mouse, in vivo, male ddY mice, deaths counted after 7 days, Behrens-Kaerber method, read-out: median lethal dose (LD50)
Protocol: A suspension containing each of compound 1 of the invention and compound A in various concentrations was orally given to male mice (ddY) at a volume of 0.1 ml per 10 g of body weight.

`O=C(O)c1cn(CCF)c2nc(N3CCNCC3)c(F)cc2c1=O` [Compound B, 6-Fluoro-1-(2-fluoroethyl)-1,4-dihydro-4-oxo-7-(1-piperazinyl)-1,8-naphthyridine-3-carboxylic acid] gave an ED50 [1] of 27.2 mg/kg, an MIC [2] of 0.1 µg/mL (≈ 0.296 µM) and an ED50 [3] of 50 mg/kg. It also gave an MIC [4] of 12.5 µg/mL (≈ 36.9 µM), an MIC [5] of 0.1 µg/mL (≈ 0.296 µM) and an ED50 (Escherichia coli P-5101 [6]) of 3 mg/kg. It also gave an MIC [7] of 0.78 µg/mL (≈ 2.31 µM), an MIC [8] of 0.1 µg/mL (≈ 0.296 µM) and an MIC (Escherichia coli P-140a) of 0.1 µg/mL (≈ 0.296 µM). For the same compound, the MIC [9] was 0.78 µg/mL (≈ 2.31 µM), the MIC [10] was 1.56 µg/mL (≈ 4.61 µM) and the MIC [11] was 0.2 µg/mL (≈ 0.591 µM). The ED50 [12] was 11.5 mg/kg, the MIC (Escherichia coli P-5101 [13]) was 0.1 µg/mL (≈ 0.296 µM) and the MIC [14] was 12.5 µg/mL (≈ 36.9 µM). The MIC [15] was 1.56 µg/mL (≈ 4.61 µM), the MIC (Proteus mirabilis P-2381) was 0.39 µg/mL (≈ 1.15 µM) and the MIC [16] was 0.1 µg/mL (≈ 0.296 µM). It also gave an MIC (Proteus morganii Kono) of 0.2 µg/mL (≈ 0.591 µM), an MIC (Shigella flexneri 2a) of 0.2 µg/mL (≈ 0.591 µM) and an MIC [17] of 0.39 µg/mL (≈ 1.15 µM). It also gave an MIC [18] of 0.78 µg/mL (≈ 2.31 µM) and an MIC [19] of 0.39 µg/mL (≈ 1.15 µM).

`CCn1cc(C(=O)O)c(=O)c2cc(F)c(N3CCN(C)CC3)nc21` [Compound A, 1-Ethyl-6-fluoro-1,4-dihydro-7-(4-methyl-1-piperazinyl)-4-oxo-1,8-naphthyridine-3-carboxylic acid] gave an ED50 [3] of over 50 mg/kg, an MIC [4] of 6.25 µg/mL (≈ 18.7 µM) and an MIC [5] of 0.1 µg/mL (≈ 0.299 µM). The MIC (Escherichia coli P-140a) was 0.39 µg/mL (≈ 1.17 µM), the MIC [10] was 6.25 µg/mL (≈ 18.7 µM) and the MIC [11] was 0.39 µg/mL (≈ 1.17 µM). It also gave an MIC (Proteus mirabilis P-2381) of 3.13 µg/mL (≈ 9.36 µM), an MIC [16] of 0.78 µg/mL (≈ 2.33 µM) and an MIC (Proteus morganii Kono) of 0.78 µg/mL (≈ 2.33 µM). For the same compound, the MIC (Shigella flexneri 2a) was 0.39 µg/mL (≈ 1.17 µM) and the MIC [17] was 1.56 µg/mL (≈ 4.67 µM).

For `CN1CCN(c2nc3c(cc2F)c(=O)c(C(=O)O)cn3CCF)CC1` [Compound 1, 6-Fluoro-1-(2-fluoroethyl)-1,4-dihydro-7-(4-methyl-1-piperazinyl)-4-oxo-1,8-naphthyridine-3-carboxylic acid], the ED50 [1] was 4.2 mg/kg, the MIC [2] was 0.2 µg/mL (≈ 0.568 µM) and the ED50 [3] was 14.9 mg/kg. It also gave an MIC [4] of 12.5 µg/mL (≈ 35.5 µM), an MIC [5] of 0.1 µg/mL (≈ 0.284 µM) and an ED50 (Escherichia coli P-5101 [6]) of 0.52 mg/kg. The MIC [7] was 1.56 µg/mL (≈ 4.43 µM), the MIC [8] was 0.2 µg/mL (≈ 0.568 µM) and the MIC (Escherichia coli P-140a) was 0.1 µg/mL (≈ 0.284 µM). It also gave an MIC [9] of 3.13 µg/mL (≈ 8.88 µM), an LD50 at 168 h [20] of over 1800 mg/kg and an MIC [10] of 6.25 µg/mL (≈ 17.7 µM). It also gave an MIC [11] of 0.2 µg/mL (≈ 0.568 µM), an ED50 [12] of 1.4 mg/kg and an MIC (Escherichia coli P-5101 [13]) of 0.1 µg/mL (≈ 0.284 µM). It also gave an MIC [14] of 12.5 µg/mL (≈ 35.5 µM), an MIC [15] of 0.39 µg/mL (≈ 1.11 µM) and an MIC (Proteus mirabilis P-2381) of 0.78 µg/mL (≈ 2.21 µM). The MIC [16] was 0.1 µg/mL (≈ 0.284 µM), the MIC (Proteus morganii Kono) was 0.39 µg/mL (≈ 1.11 µM) and the MIC (Shigella flexneri 2a) was 0.39 µg/mL (≈ 1.11 µM). It also gave an MIC [17] of 1.56 µg/mL (≈ 4.43 µM), an MIC [18] of 0.39 µg/mL (≈ 1.11 µM) and an MIC [19] of 0.78 µg/mL (≈ 2.21 µM).
